Assay results reported in ChEMBL document CHEMBL1201862, “PubChem BioAssay data set” (2004).
Activity calls are given as the source filed them.

How the values were obtained:
[1] = target: DNA dC->dU-editing enzyme APOBEC-3A (Homo sapiens, UniProt P31941); test: A3A deaminase inhibition for selectivity – biochemical, dose response (AID 504722); format: functional
[2] = target: DNA dC->dU-editing enzyme APOBEC-3G (Homo sapiens, UniProt Q9HC16); test: Dose Response confirmation of small molecule APOBEC3G DNA Deaminase Inhibitors via a fluorescence-based single-stranded DNA deaminase assay. [Related pubchem assays (depositor defined):AID493012, AID493028]; format: functional
Chain of DNA dC->dU-editing enzyme APOBEC-3G (Q9HC16 whole entry): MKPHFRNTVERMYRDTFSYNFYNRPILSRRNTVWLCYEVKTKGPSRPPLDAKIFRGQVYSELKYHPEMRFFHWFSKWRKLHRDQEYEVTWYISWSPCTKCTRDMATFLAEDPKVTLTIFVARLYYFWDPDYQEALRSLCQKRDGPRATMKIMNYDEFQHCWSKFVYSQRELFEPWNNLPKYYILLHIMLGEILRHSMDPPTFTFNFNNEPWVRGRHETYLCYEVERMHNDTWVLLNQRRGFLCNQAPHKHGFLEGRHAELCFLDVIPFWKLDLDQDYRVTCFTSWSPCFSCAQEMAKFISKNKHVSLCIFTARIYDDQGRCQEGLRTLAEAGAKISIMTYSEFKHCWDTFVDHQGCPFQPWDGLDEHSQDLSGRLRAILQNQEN

[3] = target: T1, Beta-galactosidase (Escherichia coli, UniProt Q8VNN2); test: PubChem AID 485352; format: functional
T1 sequence (Q8VNN2 whole entry): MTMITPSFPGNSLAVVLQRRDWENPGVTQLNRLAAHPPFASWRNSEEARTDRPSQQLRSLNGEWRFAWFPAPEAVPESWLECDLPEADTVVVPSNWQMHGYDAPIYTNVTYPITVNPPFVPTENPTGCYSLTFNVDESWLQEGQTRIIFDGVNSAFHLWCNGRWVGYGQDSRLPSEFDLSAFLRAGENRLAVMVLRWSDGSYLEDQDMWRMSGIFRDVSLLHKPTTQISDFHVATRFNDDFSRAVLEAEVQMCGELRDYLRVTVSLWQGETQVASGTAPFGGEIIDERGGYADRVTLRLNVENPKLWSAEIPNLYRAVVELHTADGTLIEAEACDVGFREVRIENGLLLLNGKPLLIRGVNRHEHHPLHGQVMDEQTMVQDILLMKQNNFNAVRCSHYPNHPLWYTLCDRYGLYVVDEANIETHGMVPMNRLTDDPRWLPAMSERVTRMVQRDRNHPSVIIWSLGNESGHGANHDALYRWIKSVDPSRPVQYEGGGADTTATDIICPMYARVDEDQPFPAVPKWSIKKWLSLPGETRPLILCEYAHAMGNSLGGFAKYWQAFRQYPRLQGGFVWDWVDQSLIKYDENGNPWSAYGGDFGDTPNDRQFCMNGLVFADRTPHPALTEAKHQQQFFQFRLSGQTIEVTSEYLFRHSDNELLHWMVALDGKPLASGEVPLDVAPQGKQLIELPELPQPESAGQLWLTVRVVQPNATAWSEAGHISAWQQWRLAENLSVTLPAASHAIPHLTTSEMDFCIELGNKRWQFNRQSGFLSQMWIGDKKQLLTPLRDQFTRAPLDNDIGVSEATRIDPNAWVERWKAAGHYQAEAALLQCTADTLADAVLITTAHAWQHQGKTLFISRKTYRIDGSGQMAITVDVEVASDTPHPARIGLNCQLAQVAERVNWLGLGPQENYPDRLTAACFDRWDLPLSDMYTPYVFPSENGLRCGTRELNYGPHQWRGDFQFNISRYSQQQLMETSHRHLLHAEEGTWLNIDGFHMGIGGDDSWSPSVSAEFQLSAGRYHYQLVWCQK

[4] = target: T2, Type-1 angiotensin II receptor (Homo sapiens, UniProt P30556); test: antagonism of angiotensin II type 1 receptor – cell-based, uHTS hits, selectivity assay for APJ receptor antagonist project, dose response (AID 463214); format: functional;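 note: antagonist potency against angiotensin II stimulated AT1 response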
T2 sequence (P30556 whole entry): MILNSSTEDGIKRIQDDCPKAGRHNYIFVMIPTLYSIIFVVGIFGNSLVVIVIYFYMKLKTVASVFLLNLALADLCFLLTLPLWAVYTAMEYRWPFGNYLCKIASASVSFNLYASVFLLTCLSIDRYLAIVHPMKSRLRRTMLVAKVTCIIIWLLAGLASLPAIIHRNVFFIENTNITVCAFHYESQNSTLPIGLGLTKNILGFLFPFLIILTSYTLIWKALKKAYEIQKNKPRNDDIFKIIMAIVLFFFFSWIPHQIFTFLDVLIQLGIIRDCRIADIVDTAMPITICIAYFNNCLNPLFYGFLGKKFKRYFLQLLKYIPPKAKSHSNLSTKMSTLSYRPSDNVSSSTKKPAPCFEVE

[5] = luciferase reporter signal suppression in cells – H4 neuroglioma cells, luminescence, dose response (AID 1990); format: functional, cell-based
[6] = Luminescence Cell-Based Dose Response HTS to Identify Inhibitors of 5'UTR Stem-Loop Driven Prion Protein mRNA Translation in H4 Neuroglioblastoma Cells. [Related pubchem assays: 1827 (Project Summary), 1813 (Primary HTS)]; format: functional
[7] = alpha-synuclein stem-loop luciferase translation blockers – H4 neuroglioma cells, luminescence, confirmation (AID 1988); format: functional, cell-based
[8] = target: T1, Beta-galactosidase; test: detection-enzyme interference by beta-gal modulators – biochemical, E. coli enzyme, set 3, artefact control for CCR6 antagonist project, dose response (AID 504712); format: functional
[9] = Luminescence Cell-Based Dose Retest to Confirm Inhibitors of Cancer Stem Cells. [Related pubchem assays (depositor defined):AID2717, AID2721]; format: functional; settings: Homo sapiens
[10] = decrease of insulin promoter-GFP reporter – imaging, high-content screening, mouse beta cells (AID 1628); format: functional; settings: MIN6
[11] = MIN6 cell viability loss – mouse insulinoma, cytotoxicity control, dose response (AID 2122); format: functional;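 note: confirmatory high-throughput counterscreen run to flag cytotoxic compounds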
[12] = system: HEK293; test: inhibition of NOD1-driven NF-kB reporter – cell-based, luminescence, uHTS, primary screen (AID 1578); format: functional; settings: Homo sapiens
[13] = system: HEK293; test: cells; format: functional, cell-based; settings: Homo sapiens
[14] = system: HEK293; test: cells; format: functional, cell-based; settings: Homo sapiens; remark: listed apart in the source
[15] = system: HEK293; test: NOD2 signaling inhibitors in MDP-stimulated cells, cell-based, uHTS, luminescence (AID 2001); format: functional; settings: Homo sapiens
[16] = target: Voltage-gated inwardly rectifying potassium channel KCNH2 (Homo sapiens, UniProt Q12809); settings: Potency;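 note: confirmatory quantitative high-throughput screen measuring inhibition of hERG channel activity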
Chain of Voltage-gated inwardly rectifying potassium channel KCNH2 (Q12809 whole entry): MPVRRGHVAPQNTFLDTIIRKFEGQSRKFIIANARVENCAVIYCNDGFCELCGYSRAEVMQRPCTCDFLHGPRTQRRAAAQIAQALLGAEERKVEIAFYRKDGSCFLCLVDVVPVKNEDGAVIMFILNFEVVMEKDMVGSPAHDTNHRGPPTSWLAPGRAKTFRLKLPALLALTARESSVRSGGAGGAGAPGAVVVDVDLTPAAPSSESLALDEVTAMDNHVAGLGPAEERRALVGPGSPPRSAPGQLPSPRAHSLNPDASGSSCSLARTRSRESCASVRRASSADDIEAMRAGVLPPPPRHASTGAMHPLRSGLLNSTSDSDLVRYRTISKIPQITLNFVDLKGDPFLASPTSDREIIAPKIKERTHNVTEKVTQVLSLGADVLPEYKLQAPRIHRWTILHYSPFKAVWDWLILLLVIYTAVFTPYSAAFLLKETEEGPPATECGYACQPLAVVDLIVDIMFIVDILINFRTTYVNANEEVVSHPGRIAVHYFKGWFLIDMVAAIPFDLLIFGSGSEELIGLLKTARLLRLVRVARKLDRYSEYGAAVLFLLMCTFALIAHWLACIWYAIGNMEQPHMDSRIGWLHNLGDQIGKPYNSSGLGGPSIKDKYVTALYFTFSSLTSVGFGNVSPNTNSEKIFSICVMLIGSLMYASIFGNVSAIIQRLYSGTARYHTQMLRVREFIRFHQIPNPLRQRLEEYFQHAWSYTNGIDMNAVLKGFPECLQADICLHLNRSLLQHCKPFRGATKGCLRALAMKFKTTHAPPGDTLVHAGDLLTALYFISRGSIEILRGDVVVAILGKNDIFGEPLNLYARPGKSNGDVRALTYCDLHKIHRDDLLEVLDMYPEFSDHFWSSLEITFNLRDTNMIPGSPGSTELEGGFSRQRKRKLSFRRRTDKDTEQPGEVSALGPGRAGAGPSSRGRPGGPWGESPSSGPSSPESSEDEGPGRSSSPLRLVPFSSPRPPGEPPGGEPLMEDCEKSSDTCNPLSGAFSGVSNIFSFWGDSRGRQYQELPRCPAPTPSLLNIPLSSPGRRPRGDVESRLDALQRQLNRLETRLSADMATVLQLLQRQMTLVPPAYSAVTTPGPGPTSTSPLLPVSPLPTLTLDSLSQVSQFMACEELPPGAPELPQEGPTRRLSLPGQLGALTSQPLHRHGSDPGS

[17] = NIH-3T3 fibroblast cytotoxicity, dose response, cytotoxicity control, cell-based, fluorescence, Alamar Blue, secondary assay (AID 2327); format: functional;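 note: NIH-3T3 mouse fibroblasts cultured with fluconazole at 8 µg/mL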
[18] = fluconazole-exposed Candida albicans growth modulators – fluorescence, retest, confirmation (AID 2467); format: functional, cell-based
[19] = target: T3, Oxysterols receptor LXR-beta (Homo sapiens, UniProt P55055); format: functional, cell-based;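 note: Cell-based luminescence dose-response assay of agonist activity at LXR, run as a confirmatory counterscreen to a daf-12 agonist screen; HEK293 cells with Gal4-LXR fusion and GAL4-driven luciferase reporter; agonist potency from rising luciferase signal of a Gal4-LXR reporter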
T3 sequence (P55055 whole entry): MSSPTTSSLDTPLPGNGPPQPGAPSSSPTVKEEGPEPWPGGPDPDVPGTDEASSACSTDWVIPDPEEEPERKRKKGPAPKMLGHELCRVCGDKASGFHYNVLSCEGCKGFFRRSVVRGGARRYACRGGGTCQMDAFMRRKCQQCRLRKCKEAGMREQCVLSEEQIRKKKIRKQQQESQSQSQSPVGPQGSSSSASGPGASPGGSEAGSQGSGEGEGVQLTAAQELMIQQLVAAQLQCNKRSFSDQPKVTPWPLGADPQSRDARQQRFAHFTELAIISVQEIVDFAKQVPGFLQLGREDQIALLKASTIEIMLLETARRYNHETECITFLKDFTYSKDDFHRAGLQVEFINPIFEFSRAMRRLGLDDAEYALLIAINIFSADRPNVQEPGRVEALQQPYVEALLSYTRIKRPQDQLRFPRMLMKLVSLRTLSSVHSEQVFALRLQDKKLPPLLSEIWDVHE

[20] = cells

Chain of DNA dC->dU-editing enzyme APOBEC-3A (P31941 whole entry): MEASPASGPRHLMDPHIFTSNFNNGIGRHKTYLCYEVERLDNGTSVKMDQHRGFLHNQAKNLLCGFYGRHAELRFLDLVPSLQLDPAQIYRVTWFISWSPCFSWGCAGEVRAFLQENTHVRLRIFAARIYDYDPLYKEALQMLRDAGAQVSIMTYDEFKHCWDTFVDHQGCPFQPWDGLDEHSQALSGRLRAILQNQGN

Cc1cc(-c2nnc(S)n2CC(C)C)cs1
IC50 [1]: > 100 µM (inactive) | IC50 [2]: 5.87 µM (active)

CC1=NC(Nc2nc(C)c3ccccc3n2)=NC(C)(C)C1
EC50 [3]: > 40 µM (inactive) | IC50 [4]: 13 µM (active)

NC(=O)c1c(NC(=O)c2ccc([N+](=O)[O-])o2)sc2c1CCCC2
EC50 [5]: 13.3 µM (active) | EC50 [6]: 47.5 µM (active) | EC50 [7]: 7.76 µM (active) | IC50 [8]: > 66.6 µM (inactive)

Cc1ccc(-c2cc(-c3ccccc3)nc(NN)n2)cc1
EC50 [3]: > 40 µM (inactive) | IC50 [4]: 6.66 µM (active) | AC50 [9]: 5.4 µM (active)

N#Cc1ccccc1NC(=O)C1SC(Nc2ccccc2)=C(C(=O)Nc2ccc(Cl)cc2)C1=N (stereo unspecified)
IC50 [10]: 8.77 µM (active) | IC50 [11]: 6.4 µM (active)

Nc1ccc(S(=O)(=O)Nc2nccc(/C=C/c3cccc(Br)c3)n2)cc1
EC50 [12]: 8.24 µM (active) | IC50 [13]: 12.8 µM (active) | IC50 [14]: > 20 µM (inactive) | IC50 [15]: 7.62 µM (active)

COC(=O)C(C)Sc1nnc(S)s1 (stereo unspecified)
IC50 [1]: > 100 µM (inactive) | IC50 [2]: 15.8 µM (active)

CC(C)CCn1c(N)c(C(=O)OCC2CCCO2)c2nc3ccccc3nc21 (stereo unspecified)
EC50 [3]: > 40 µM (inactive) | IC50 [4]: > 40 µM (not active)

C=CCOC(=O)CCCCCCCC
AC50 [16]: 79.4 µM (inconclusive)

COc1ccc(-c2csc(-c3ccccc3)n2)c(OC)c1
EC50 [17]: > 160 µM (inactive) | EC50 [18]: 6.64 µM (active) | EC50 [19]: > 67.5 µM (inactive) | EC50 [20]: > 67.5 µM (inactive)
